Reference: patent US8415272B2, “Quinoline derivatives and their use as fungicides” (Syngenta Crop Protection LLC, priority 2008, dated 2013)

Tests used:
[1] = system: Plasmopara viticola; test: Leaf disk assay, Plasmopara viticola (downy mildew of grapevine), preventive; assay type: in vivo; conditions: foliar, 168 h, grapevine leaf disks, assessed seven days after inoculation, read-out: control of fungal infection, Plasmopara viticola
[2] = system: Puccinia recondita f.sp. tritici; test: Leaf disk assay, Puccinia recondita f.sp. tritici (wheat brown rust), preventive; assay type: in vivo; conditions: foliar, 216 h, wheat leaf segments, assessed nine days after inoculation, read-out: control of fungal infection, Puccinia recondita f.sp. tritici
[3] = system: Septoria tritici; test: Growth inhibition in nutrient broth, Septoria tritici (leaf blotch), photometric; assay type: cell-based; conditions: Zymoseptoria tritici, PDB broth, 24 C, 72 hrs, read-out: control of fungal infection, Septoria tritici
[4] = system: Erysiphe graminis f.sp. tritici; test: Leaf disk assay, Erysiphe graminis f.sp. tritici (wheat powdery mildew), preventive; assay type: in vivo; conditions: Blumeria graminis, foliar, 96 h, wheat leaf segments, assessed four days after inoculation, read-out: control of fungal infection, Erysiphe graminis f.sp. tritici
Procedure: The compounds were tested in a leaf disk assay, with methods described below. The test compounds were dissolved in DMSO and diluted into water to 200 ppm. In the case of the test on Pythium ultimum, they were dissolved in DMSO and diluted into water to 20 […] graminis f.sp. tritici (wheat powdery mildew): Wheat leaf segments were placed on agar in a 24-well plate and sprayed with a solution of the test compound. After allowing to dry completely, for between 12 and 24 hours, the leaf disks were inoculated with a spore suspension of the fungus. After appropriate incubation the activity of a compound was assessed four days after inoculation as preventive fungicidal activity.

[5] = system: Septoria nodorum; test: Leaf disk assay, Septoria nodorum (wheat glume blotch), preventive; assay type: in vivo; conditions: Parastagonospora nodorum, foliar, 96 h, wheat leaf segments, assessed four days after inoculation, read-out: control of fungal infection, Septoria nodorum
[6] = system: Phytophthora infestans; test: whole plant or invertebrate; assay type: in vivo; conditions: in Solanum lycopersicum, foliar, 96 h, read-out: control of fungal infection, Phytophthora infestans
[7] = system: Pythium ultimum; test: Growth inhibition in potato dextrose broth, Pythium ultimum (damping off), photometric; assay type: cell-based; conditions: Globisporangium ultimum, 24° C., 48 hours, read-out: control of fungal infection, Pythium ultimum
Procedure: The compounds were tested in a leaf disk assay, with methods described below. The test compounds were dissolved in DMSO and diluted into water to 200 ppm. In the case of the test on Pythium ultimum, they were dissolved in DMSO and diluted into water to 20 ppm. Pythium ultimum (Damping off): Mycelial fragments of the fungus, prepared from a fresh liquid culture, were mixed into potato dextrose broth. A solution of the test compound in dimethyl sulphoxide was diluted with water to 20 ppm then placed into a 96-well microtiter plate and the nutrient broth containing the fungal spores was added. The test plate was incubated at 24° C. and the inhibition of growth was determined photometrically after 48 hours.

C#Cc1cnc2c(C)cc(OC(SC)C(=O)NC(C)(C=O)COC)cc2c1 (centres unmarked) [Example 134]
≥ 60%: pest or weed control at 200 ppm [1] | pest or weed control at 200 ppm [2] | inhibition of growth at 60 ppm [3] | pest or weed control at 200 ppm [4] | pest or weed control at 200 ppm [5] | pest or weed control at 200 ppm [6]

C#Cc1cnc2ccc(OC(SC)C(=O)NC(C)(COC)COC)cc2c1 (centres unmarked) [Example 88]
≥ 60%: pest or weed control at 200 ppm [1] | pest or weed control at 200 ppm [2] | inhibition of growth at 60 ppm [3] | pest or weed control at 200 ppm [4] | inhibition of growth at 20 ppm [7] | pest or weed control at 200 ppm [5] | pest or weed control at 200 ppm [6]

C#Cc1cnc2ccc(OC(SC)C(=O)NCCO)cc2c1 (centres unmarked) [Example 194]
≥ 60%: pest or weed control at 200 ppm [1] | inhibition of growth at 20 ppm [7] | pest or weed control at 200 ppm [5] | pest or weed control at 200 ppm [6]

C#Cc1cnc2cc(F)c(OC(SC)C(=O)NC(C)(C)C(=O)OC)cc2c1 (centres unmarked) [Example 105]
≥ 60%: pest or weed control at 200 ppm [1] | pest or weed control at 200 ppm [2] | inhibition of growth at 60 ppm [3] | pest or weed control at 200 ppm [4] | pest or weed control at 200 ppm [5] | pest or weed control at 200 ppm [6]

C#Cc1cnc2ccc(OC(OC)C(=O)NC(C)(C#N)COC)cc2c1 (centres unmarked) [Example 128]
≥ 60%: pest or weed control at 200 ppm [1] | inhibition of growth at 60 ppm [3] | pest or weed control at 200 ppm [4] | inhibition of growth at 20 ppm [7] | pest or weed control at 200 ppm [5] | pest or weed control at 200 ppm [6]

C#Cc1cnc2c(Cl)cc(OC(SC)C(=O)NC(C)(C)C#CCCCCl)cc2c1 (centres unmarked) [Example 123]
≥ 60%: pest or weed control at 200 ppm [1] | pest or weed control at 200 ppm [2] | inhibition of growth at 60 ppm [3] | pest or weed control at 200 ppm [4] | pest or weed control at 200 ppm [5] | pest or weed control at 200 ppm [6]

C#Cc1cnc2c(Cl)cc(OC(SC)C(=O)NC(C)(C#N)COC)cc2c1 (centres unmarked) [Example 64]
≥ 60%: pest or weed control at 200 ppm [1] | pest or weed control at 200 ppm [2] | inhibition of growth at 60 ppm [3] | pest or weed control at 200 ppm [4] | inhibition of growth at 20 ppm [7] | pest or weed control at 200 ppm [5] | pest or weed control at 200 ppm [6]

CC#Cc1cnc2ccc(OC(SC)C(=O)NC(C)(C#N)COC)cc2c1 (centres unmarked) [Example 53]
≥ 60%: inhibition of growth at 60 ppm [3] | inhibition of growth at 20 ppm [7] | pest or weed control at 200 ppm [5] | pest or weed control at 200 ppm [6]

C#CCOCC(C)(COCC#C)NC(=O)C(Oc1ccc2ncc(C#C)cc2c1)SC (centres unmarked) [Example 165]
≥ 60%: pest or weed control at 200 ppm [1] | pest or weed control at 200 ppm [2] | inhibition of growth at 60 ppm [3] | pest or weed control at 200 ppm [4] | inhibition of growth at 20 ppm [7] | pest or weed control at 200 ppm [5] | pest or weed control at 200 ppm [6]

C#Cc1cnc2ccc(OC(SC)C(=O)NC3(C(OC)OC)CCC3)cc2c1 (centres unmarked) [Example 153]
≥ 60%: pest or weed control at 200 ppm [1] | inhibition of growth at 60 ppm [3] | pest or weed control at 200 ppm [4] | inhibition of growth at 20 ppm [7] | pest or weed control at 200 ppm [5] | pest or weed control at 200 ppm [6]

C#Cc1cnc2ccc(OC(SC)C(=O)NC3(CO)CCC3)cc2c1 (centres unmarked) [Example 148]
≥ 60%: pest or weed control at 200 ppm [1] | pest or weed control at 200 ppm [2] | inhibition of growth at 60 ppm [3] | pest or weed control at 200 ppm [4] | pest or weed control at 200 ppm [6]

C#Cc1cnc2ccc(OC(OC)C(=O)NC(C)(C#C)COC)cc2c1 (centres unmarked) [Example 155]
≥ 60%: pest or weed control at 200 ppm [2] | pest or weed control at 200 ppm [4] | pest or weed control at 200 ppm [5]

C#Cc1cnc2c(Cl)cc(OC(SC)C(=O)NC(C)(C#CC)CC)cc2c1 (centres unmarked) [Example 121]
≥ 60%: pest or weed control at 200 ppm [1] | inhibition of growth at 60 ppm [3] | pest or weed control at 200 ppm [4] | inhibition of growth at 20 ppm [7] | pest or weed control at 200 ppm [5] | pest or weed control at 200 ppm [6]

C#Cc1cnc2ccc(OC(SC)C(=O)NC(C)(C)C#CCCOC)cc2c1 (centres unmarked) [Example 103]
≥ 60%: pest or weed control at 200 ppm [1] | pest or weed control at 200 ppm [2] | pest or weed control at 200 ppm [4] | pest or weed control at 200 ppm [5] | pest or weed control at 200 ppm [6]

C#Cc1cnc2c(F)c(F)c(OC(SC)C(=O)NC(C)(C)C#CCOC)cc2c1 (centres unmarked) [Example 215]
≥ 60%: pest or weed control at 200 ppm [1] | pest or weed control at 200 ppm [2] | inhibition of growth at 60 ppm [3] | pest or weed control at 200 ppm [4] | inhibition of growth at 20 ppm [7] | pest or weed control at 200 ppm [6]

C#Cc1cnc2ccc(OC(SC)C(=O)NC(C)(C#N)CSC)cc2c1 (centres unmarked) [Example 67]
≥ 60%: pest or weed control at 200 ppm [1] | pest or weed control at 200 ppm [2] | inhibition of growth at 60 ppm [3] | pest or weed control at 200 ppm [4] | inhibition of growth at 20 ppm [7] | pest or weed control at 200 ppm [6]

COCC#CC(C)(C)NC(=O)C(Oc1ccc2ncc(C#CCO)cc2c1)SC (centres unmarked) [Example 49]
≥ 60%: pest or weed control at 200 ppm [1] | pest or weed control at 200 ppm [2] | inhibition of growth at 20 ppm [7] | pest or weed control at 200 ppm [6]

C#Cc1cnc2c(C)cc(OC(CC)C(=O)NC(C)(C)C#CCOC)cc2c1 (centres unmarked) [Example 112]
≥ 60%: pest or weed control at 200 ppm [1] | pest or weed control at 200 ppm [2] | inhibition of growth at 60 ppm [3] | pest or weed control at 200 ppm [4] | pest or weed control at 200 ppm [5] | pest or weed control at 200 ppm [6]

C#Cc1cnc2ccc(OC(OC)C(=O)NC(C)(C)C#CC)cc2c1 (centres unmarked) [Example 86]
≥ 60%: pest or weed control at 200 ppm [1] | pest or weed control at 200 ppm [2] | inhibition of growth at 60 ppm [3] | pest or weed control at 200 ppm [4] | pest or weed control at 200 ppm [5] | pest or weed control at 200 ppm [6]

COCCC(C)(C)NC(=O)C(Oc1ccc2ncc(C#C[Si](C)(C)C)cc2c1)SC (centres unmarked) [Example 78]
≥ 60%: pest or weed control at 200 ppm [1] | inhibition of growth at 60 ppm [3] | pest or weed control at 200 ppm [4] | pest or weed control at 200 ppm [5] | pest or weed control at 200 ppm [6]

C#Cc1cnc2ccc(OC(SC)C(=O)NC(C)(C#C)CO)cc2c1 (centres unmarked) [Example 173]
≥ 60%: pest or weed control at 200 ppm [1] | pest or weed control at 200 ppm [4] | inhibition of growth at 20 ppm [7] | pest or weed control at 200 ppm [5] | pest or weed control at 200 ppm [6]

C#Cc1cnc2ccc(OC(SC)C(=O)NC3(C#N)CCC3)cc2c1 (centres unmarked) [Example 83]
≥ 60%: pest or weed control at 200 ppm [1] | pest or weed control at 200 ppm [2] | inhibition of growth at 60 ppm [3] | pest or weed control at 200 ppm [4] | pest or weed control at 200 ppm [5] | pest or weed control at 200 ppm [6]

C#Cc1cnc2ccc(OC(SC)C(=O)NC)cc2c1 (centres unmarked) [Example 96]
≥ 60%: pest or weed control at 200 ppm [1] | inhibition of growth at 60 ppm [3] | pest or weed control at 200 ppm [4] | inhibition of growth at 20 ppm [7] | pest or weed control at 200 ppm [5] | pest or weed control at 200 ppm [6]
